Results published in patent publication US11504362B2, “Liquid dosage forms to treat cancer” (Exelixis, Inc., priority 2017, dated 2022).
“And” between values parts separate entries of the source, which are not always exact repeats. Identical values can stand only once. Like-named read-outs stand apart in the source and are kept apart here.

Columns and labels:
[1] = cited from earlier work; for CL/F / t1/2 / Tmax / Cmax: single oral 140 mg FBE; for CL/F / t1/2 / Cmax: mean ± CV %; for Tmax: median (minimum, maximum); for Cmax: plasma, n = 72
[2] = male, human, in vivo
Procedure: Pharmacokinetics: Serial blood, urine, and feces were collected at specified times following dosing.
All samples collected for radioactivity analysis were analyzed for total radioactivity.
Blood samples (4 mL) for whole blood analysis of total radioactivity were collected within 15 minutes pre-dose and at 1, 2, 4, 8, 14, 24, and 72 hours post-dose. Prior to study initiation, the Celerion Scintillation Laboratory supplied to the Celerion clinic complete written instructions for collection, handling, and processing of samples. Samples collected were used to determine the percentage of radioactivity associated with erythrocytes in whole blood over time (calculated only for time points that whole blood was collected).
Individual dosing containers (including the dosage form) were analyzed pre-dose and post-dose for radioactivity, with the (post-dose−pre-dose) difference being the administered dose. Whole blood, plasma, urine, feces, and emesis (if applicable) were analyzed for radioactivity content by liquid scintillation counting procedures. Whole blood and fecal samples were dried and oxidized prior to counting. Detailed reports of scintillation counting method and results for total radioactivity accompany the clinical study report. […]
The Cmax and time to peak concentration (tmax) were directly determined from the observed blood/plasma concentrations data. […]

[3] = system: tumor models (human medullary thyroid cancer, human breast cancer, and rat glioma); details: cited from earlier work
clinical = details: human, in vivo
Procedure: Samples for 2 subjects were used for the investigation study. Therefore, only 6 subjects' PK profiles were determined using a radio-quantitation method.

[4] = Mass balance: excretion and recovery of 14C total radioactivity in urine and feces; type: in vivo, human
Excerpt: Methodology: This was an open-label, single-dose, single-center, mass balance, Phase 1 study in healthy male volunteers. There were two study periods: a Screening Period, during which subjects underwent assessments to determine their eligibility for the study, and an On-study Period, which started on Day-1 (‘check-in’ day) when the subject was admitted to the Celerion clinic. […] However, subjects who were discharged from the clinic before Day 28 were required to return to the clinic for all remaining scheduled pharmacokinetic blood sampling and the Day 28 safety assessments. Subjects not meeting radioactivity release criteria by Day 28 could be asked to remain confined in the clinic or continue collection of urine and feces at home (returning samples to the clinic daily) for up to an additional 7 days (through to Day 35). Due to the fact that by Day 35 subjects had still not met release criteria, subjects were given the option of withdrawing from the study or completing the additional 14-day collection period (either in the clinic or as a daily visitor) with urine and feces collections and daily adverse event (AE) inquiries. All urine and fecal collections for all subjects stopped following the conclusion of the Day 49 scheduled events regardless of percentage of total radioactive dose recovered.
A single dose oral solution was administered at Hour 0 on Day 1 by the clinic staff. The dose was given via the scintillation vial. Following dosing, the scintillation vial was rinsed 3 times with room temperature distilled water, and the rinsate was administered to the subject. Residual radioactivity was determined for each dosing vial. The total volume of liquid administered including radiolabelled study drug, rinses, and water given for dosing (in addition to the rinses) was the same for each subject.
Mass balance was calculated as the percent of total administered radioactivity recovered in urine and feces. For the purpose of calculating mass balance, the amount of administered radioactivity was defined as the total radioactivity in the dosing solution minus any radioactivity lost due to emesis (if any occurred), adsorption to the dosing vial, etc.
Subjects were asked to empty their bladders within approximately 60 minutes prior to dosing for the pre-dose sample. Samples were collected during the 0 to 8 hours and 8 to 24 hours post-dose intervals, and then continuing in 24-hour intervals through Day 49. For subjects who met early release criteria, sampling could cease upon discharge from the clinic. […] One subject was released from the clinic following the 864 hour interval (Day 37) collection and no longer provided excreta samples.
Subjects were asked to bring a pre-dose stool sample with them at check-in (produced within 24 hours of check-in). Stools produced between subject check-in and dosing were collected for the pre-dose sample as well, and the sample produced nearest to dosing was used as the pre-dose sample. Post-dose stools were collected in 24-hour intervals through the morning of Day 49. For subjects who met early release criteria, sampling could cease upon discharge from the clinic. […] One subject was released from the clinic following the 864 hour interval (Day 37) collection and no longer provided excreta samples.
For each subject, multiple fecal specimens from each 24-hour interval were combined into a pre-weighed wide mouth polypropylene/polyethylene container and appropriately labeled. For each interval, the fecal sample was weighed to determine the final fecal weight. Each sample was homogenized into a slurry (approximately 20% suspension in water) from which the necessary aliquots were taken.
Mass balance was calculated as the percent of total administered radioactivity recovered in urine and feces. […]

[5] = single 175 mg oral dose, through 48 days, mean ± SD (% CV), n = 8

In the case of `COc1cc2nccc(Oc3ccc(NC(=O)C4(C(=O)Nc5ccc(F)cc5)CC4)cc3)c2cc1OC` [XL184, N-(4-{[6,7-bis(methyloxy)quinolin-4-yl]oxy}phenyl)-N′-(4-fluorophenyl)cyclopropane-1,1-dicarboxamide], the “% CV of Cmax, AUC0-t, and AUC0-inf” value ([1]; 20 mg (FBE) tablet strength) is given as 48-72%, the “% CV of Cmax, AUC0-t, and AUC0-inf” value ([1]; 40 mg (FBE) tablet strength) is given as 42-56% and the “% CV of Cmax, AUC0-t, and AUC0-inf” value ([1]; 60 mg (FBE) tablet strength) is given as 38-41%. For the same compound, the “% CV of AUC0-inf” value ([1]; 140 mg (FBE) capsule) was roughly 39%, the “% CV of AUC0-t” value ([1]; 140 mg (FBE) capsule) was roughly 37% and the “% CV of Cmax” value ([1]; 140 mg (FBE) capsule) was roughly 43%. For the same compound, the “% CV of AUC0-inf” value ([1]; 140 mg (FBE) tablet) was roughly 46%, the “% CV of AUC0-t” value ([1]; 140 mg (FBE) tablet) was roughly 44% and the “% CV of Cmax” value ([1]; 140 mg (FBE) tablet) was “about 54%”. The CL/F ([1]; capsule formulation) was 2.69 ± 32 L/h, the t1/2 ([1]; capsule formulation) was 112 ± 26 h and the Tmax ([1]; capsule formulation) was 4.00 (2.00, 5.04) h. For the same compound, the Cmax ([1]; capsule formulation) was 554 ± 43 ng/mL, the CL/F ([1]; tablet formulation) was 2.61 ± 49 L/h and the t1/2 ([1]; tablet formulation) was 115 ± 31 h. For the same compound, the Tmax ([1]; tablet formulation) was 3.49 (1.99, 24.00) h, the Cmax ([1]; tablet formulation) was 702 ± 54 ng/mL and the kel of total radioactivity [2] was 0.00308 h⁻¹. For the same compound, the Tumor regression ([3]; human medullary thyroid cancer, human breast cancer, and rat glioma models) was “marked tumor regression”, the Tumor growth inhibition ([3]; multiple tumor models) was “significant tumor growth inhibition” and the Immunohistochemistry findings ([3]; within 24 hours after administration) was “rapid effects on the endothelium, vascular breakdown, and tumor cell death”. It also gave an AUC0-24 (clinical) of 10700 ± 3170 h · ngEq/mL, an AUC0-72 (clinical) of 23800 ± 9340 h · ngEq/mL and an AUC0-inf (clinical) of 40300 ± 12300 h · ngEq/mL. It also gave an AUC0-t (clinical) of 38100 ± 12800 h · ngEq/mL, a concentration at 0.5 h (clinical; po, 175 mg, Plasma concentration, 0.50 h, individual subject, single 175 mg oral [14C]-XL184 (100 μCi), healthy male subjects, radio-quantitative method) of 283 ng/mL and a concentration at 5 h (clinical; po, 175 mg, Plasma concentration, 5.00 h, individual subject, single 175 mg oral [14C]-XL184 (100 μCi), healthy male subjects, radio-quantitative method) of 512 ng/mL. It also gave a concentration at 336 h (clinical; po, 175 mg, Plasma concentration, 336.00 h, individual subject, single 175 mg oral [14C]-XL184 (100 μCi), healthy male subjects, radio-quantitative method) of 10.3 ng/mL, a concentration at 72 h (clinical; po, 175 mg, Plasma concentration, individual subject, single 175 mg oral [14C]-XL184 (100 μCi), healthy male subjects, radio-quantitative method) of 101 ng/mL and a ke1 (clinical; male) of 0.0112 ± 0.0053 h⁻¹. It also gave a Tmax (clinical; male, Tmax) of roughly 1.99 h, a concentration at 72 h (clinical; male, po, 175 mg, Plasma concentration, Mean, N=6, single 175 mg oral [14C]-XL184 (100 μCi), healthy male subjects, radio-quantitative method) of 159 ng/mL and a concentration at 72 h (clinical; male, po, 175 mg, Plasma concentration, Median, N=6, single 175 mg oral [14C]-XL184 (100 μCi), healthy male subjects, radio-quantitative method) of 162 ng/mL. For the same compound, the “Urine cumulative excretion of 14C total radioactivity” value (“Urine cumulative excretion” for short) ([4]; Day 1 (24 hrs), individual subjects) was 2.32% and 4.30% and 3.22% and 7.81% and 3.81% and 3.89% and 4.78% and 3.38%, the “Urine cumulative excretion” value ([4]; Day 1 (24 hrs), mean) was 4.19% and the “Urine cumulative excretion” value ([4]; Day 2 (48 hrs), individual subjects) was 4.70% and 8.75% and 6.39% and 14.86% and 7.68% and 8.34% and 9.68% and 7.07%. For the same compound, the “Urine cumulative excretion” value ([4]; Day 2 (48 hrs), mean) was 8.43%, the “Urine cumulative excretion” value ([4]; Day 3 (72 hrs), individual subjects) was 7.26% and 13.09% and 9.22% and 20.34% and 11.00% and 12.23% and 13.67% and 9.75% and the “Urine cumulative excretion” value ([4]; Day 3 (72 hrs), mean) was 12.07%. The “Urine cumulative excretion” value ([4]; Day 4 (96 hrs), individual subjects) was 9.65% and 16.19% and 11.53% and 24.39% and 13.47% and 15.11% and 16.57% and 12.11%, the “Urine cumulative excretion” value ([4]; Day 4 (96 hrs), mean) was 14.88% and the “Urine cumulative excretion” value ([4]; Day 5 (120 hrs), individual subjects) was 11.74% and 18.60% and 13.44% and 27.04% and 15.59% and 17.46% and 18.91% and 13.86%. The “Urine cumulative excretion” value ([4]; Day 5 (120 hrs), mean) was 17.08%, the “Urine cumulative excretion” value ([4]; Day 6 ([…]), mean) was 18.72% and the “Urine cumulative excretion” value ([4]; Day 7 ([…]), mean) was 20.04%. For the same compound, the “Urine cumulative excretion” value ([4]; Day 8 (192 hrs), individual subjects) was 16.27% and 23.34% and 16.60% and 31.32% and 19.36% and 21.56% and 23.11% and 18.17%, the “Urine cumulative excretion” value ([4]; Day 8 (192 hrs), mean) was 21.22% and the “Urine cumulative excretion” value ([4]; Day 9 (216 hrs), individual subjects) was 17.35% and 24.24% and 17.22% and 32.02% and 20.33% and 22.44% and 23.99% and 19.02%. The “Urine cumulative excretion” value ([4]; Day 9 (216 hrs), mean) was 22.08%, the “Urine cumulative excretion” value ([4]; Day 10 (240 hrs), individual subjects) was 18.26% and 25.17% and 17.67% and 32.59% and 21.12% and 23.24% and 24.71% and 19.68% and the “Urine cumulative excretion” value ([4]; Day 10 (240 hrs), mean) was 22.81%. The “Urine cumulative excretion” value ([4]; Day 11 ([…]), mean) was 23.42%, the “Cumulative recovery of total radioactivity in feces” value [4, 5] was 53.79% of Dose and the “Cumulative recovery of total radioactivity in urine” value [4, 5] was 27.29% of Dose. The “Cumulative recovery of total radioactivity, total (urine and feces)” value ([4]; single 175 mg oral dose, within 48 days, mean ± SD (% CV), n = 8) was 81.09% of Dose.
